Data published in ChEMBL document CHEMBL1201862, “PubChem BioAssay data set” (2004).
Activity calls are given as the source filed them.

Assays:
[1] = Luminescence Cell-Based Dose Response HTS to Identify Activators of Luciferase Translation or Activity in H4 […] Cells. [Related pubchem assays: 1829 (Project Summary), 1814 (Primary HTS)]; assay type: functional
H4 = assay: Luminescence Cell-Based Dose Response HTS to Identify Activators of 5'UTR Stem-Loop Driven Prion Protein mRNA Translation in H4 Neuroglioblastoma Cells. [Related pubchem assays: 1829 (Project Summary), 1814 (Primary HTS)]; assay type: functional; settings: Homo sapiens
[2] = HPDE-C7 pancreatic duct cell viability loss – fluorescence, HTS (AID 430); assay type: functional, cell-based; settings: Homo sapiens
[3] = viability loss of HPDE-C7K cells – cell-based, fluorescence, HTS, primary screen (AID 431); assay type: functional; settings: Homo sapiens
14-3-3 protein gamma = 14-3-3 protein gamma (Homo sapiens, UniProt P61981); assay: modulators of 14-3-3 gamma client binding – dose response (AID 711); assay type: functional
[4] = molecular target: Neuropeptide Y receptor type 1 (Homo sapiens, UniProt P25929); assay type: functional;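 note: HEK293 cells with a CNG channel challenged with NPY then isoproterenol; potency as antagonist that reverses NPY suppression of cAMP signal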
[5] = molecular target: Neuropeptide Y receptor type 2 (Homo sapiens, UniProt P49146); assay type: functional, cell-based;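 note: HEK293 cells expressing the receptor and a CNG channel; stimulus was NPY near EC95 followed by isoproterenol to raise cAMP; antagonist potency measured as restoring cAMP signal that NPY suppresses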
[6] = Luminescent dose response cell-based high throughput screening assay for inhibitors of the Janus kinase 2 mutant JAK2V617F. [Related pubchem assays: 1446 (Primary screen.), 1521 (Confirmation assay.), 1486 (Counter screen.)]; assay type: functional
Vero = assay: cells; assay type: functional; settings: Chlorocebus sabaeus
Paired box protein Pax-8 = Paired box protein Pax-8 (Homo sapiens, UniProt Q06710); assay: PAX8 transcriptional activity inhibition in RMG-I – RMG-I cells, luciferase, cherry-pick, dose response (AID 687027); assay type: functional, cell-based;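 note: luciferase reporter driven by Pax8 target thyroperoxidase promoter measured by SteadyGlo luminescence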
Streptokinase A = molecular target: T1, Streptokinase A (Streptococcus pyogenes serotype M1, UniProt P10520); assay: Absorbance Microorganism-Based Dose Response Follow up to Identify Inhibitors of Streptokinase Expression. [Related pubchem assays: 1677 (Project Summary), 1915, 1914, 1902 (Retest at Dose), 1900 (Counter Screen), 1662 (Primary HTS)]; assay type: functional, Streptococcus pyogenes M1 GAS
T1 sequence (P10520 whole entry): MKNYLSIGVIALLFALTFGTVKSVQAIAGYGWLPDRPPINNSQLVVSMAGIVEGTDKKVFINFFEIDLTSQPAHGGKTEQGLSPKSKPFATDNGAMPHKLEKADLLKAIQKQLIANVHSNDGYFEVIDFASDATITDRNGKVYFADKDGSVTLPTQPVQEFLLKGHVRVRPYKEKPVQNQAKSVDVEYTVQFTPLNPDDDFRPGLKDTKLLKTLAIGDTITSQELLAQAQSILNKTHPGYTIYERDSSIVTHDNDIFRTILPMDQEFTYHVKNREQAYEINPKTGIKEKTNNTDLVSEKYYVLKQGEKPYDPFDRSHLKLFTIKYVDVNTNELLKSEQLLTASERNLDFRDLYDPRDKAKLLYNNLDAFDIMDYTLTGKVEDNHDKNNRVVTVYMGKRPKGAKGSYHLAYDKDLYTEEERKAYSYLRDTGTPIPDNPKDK

Streptococcus = assay: GAS bacterial viability reduction – luminescence, BacTiter-Glo, strain UMAA2166, counter-screen for streptokinase expression inhibitor project, dose response (AID 2477); assay type: functional, organism-based
Melanocortin receptor 4 = Melanocortin receptor 4 (Homo sapiens, UniProt P32245); assay: inhibitors of MC4R cAMP signaling – cell-based, TR-FRET, biased antagonists, dose response (AID 602298); assay type: functional;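 note: antagonist potency against agonist-stimulated cAMP production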
[7] = cAMP pathway inhibition in counterscreen cell line – TR-FRET cAMP detection, counter-screen for MC4R biased antagonist project, dose response (AID 602305); assay type: functional, cell-based;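 note: U2OS cells stimulated with forskolin near its EC80 as the cAMP inducer; potency is for inhibition of forskolin-stimulated cAMP signaling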
[8] = molecular target: G-protein coupled receptor 55 (Homo sapiens, UniProt Q9Y2T6); assay: inhibition of LPI-stimulated GPR55 beta-arrestin translocation – imaging, U2OS, beta-arrestin-GFP, LPI agonist, primary screen (AID 2013); assay type: functional;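 note: antagonist potency measured as reduced agonist-driven arrestin aggregation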
[9] = microbe, parasite or virus in culture; assay type: functional; settings: Mycobacterium tuberculosis
[10] = Luminescence-based dose response cell-based high throughput screening assay for cytotoxic compounds using the IEC-6 intestinal epithelial cell line. [Related pubchem assays: 1858 (Summary AID.), 1825 (Counterscreen.), 1907 (Confirmation screen.)]; assay type: functional
[11] = THP-1 cell cytotoxicity, dose response, cytotoxicity control for non-replicating M. tuberculosis project (AID 489025); assay type: functional
[12] = HepG2 cell cytotoxicity, dose response, cytotoxicity control for non-replicating M. tuberculosis project (AID 489018); assay type: functional; settings: Mycobacterium tuberculosis
[13] = Vero E6 cell cytotoxicity, dose response, cytotoxicity control for non-replicating M. tuberculosis project, secondary assay (AID 492998); assay type: functional, VeroE6; settings: Vero C1008
cells = assay type: functional
INS1 = assay: INS-1E survival protection against cytokine death – cell-based, luminescence, retest, dose response (AID 449756); assay type: functional; settings: Rattus norvegicus;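 note: cell death triggered by IL-1 beta plus TNF-alpha plus IFN-gamma mixture; protective hits raise ATP signal compared with cytokine alone wells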
[14] = Fluorescence-based cell-based high throughput dose response assay for inhibitors of the interaction of nucleotide-binding oligomerization domain containing 2 (NOD2) and the receptor-interacting serine-threonine kinase 2 (RIPK2).; assay type: functional; settings: Homo sapiens
[15] = molecular target: Photoreceptor-specific nuclear receptor (Homo sapiens, UniProt Q9Y5X4); assay type: functional, cell-based;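 note: CHO-S cells with Gal4-NCOR and VP16-NR2E3 two-hybrid luciferase reporter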
[16] = viability loss in HeLa cells – cytotoxicity control for MgcRacGAP inhibitor project, dose response (AID 624300); assay type: functional
[17] = molecular target: T2, Rac GTPase-activating protein 1 (Homo sapiens, UniProt Q9H0H5); assay: blockers of MgcRacGAP-driven Rac1 GTP hydrolysis – biochemical, ADP Hunter fluorescence, primary and confirmatory, confirmation (AID 624330); assay type: functional
T2 sequence (Q9H0H5 whole entry): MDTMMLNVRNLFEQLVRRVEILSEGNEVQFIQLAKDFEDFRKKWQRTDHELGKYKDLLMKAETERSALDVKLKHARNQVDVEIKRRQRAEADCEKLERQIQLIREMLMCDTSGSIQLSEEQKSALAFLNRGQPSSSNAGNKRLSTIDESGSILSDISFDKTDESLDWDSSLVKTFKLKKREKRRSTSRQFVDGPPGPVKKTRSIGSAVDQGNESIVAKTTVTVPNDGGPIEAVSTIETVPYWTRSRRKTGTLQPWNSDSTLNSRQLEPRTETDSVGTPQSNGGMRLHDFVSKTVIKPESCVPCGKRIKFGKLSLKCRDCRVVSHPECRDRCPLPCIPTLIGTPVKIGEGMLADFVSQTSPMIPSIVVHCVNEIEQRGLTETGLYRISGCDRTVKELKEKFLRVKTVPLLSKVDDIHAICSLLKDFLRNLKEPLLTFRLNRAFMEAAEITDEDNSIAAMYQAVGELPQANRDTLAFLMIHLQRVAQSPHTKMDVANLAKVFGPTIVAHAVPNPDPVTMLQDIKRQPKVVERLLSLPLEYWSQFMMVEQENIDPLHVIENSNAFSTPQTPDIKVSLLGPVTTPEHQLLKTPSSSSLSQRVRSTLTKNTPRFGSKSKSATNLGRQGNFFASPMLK

[18] = molecular target: Protein-tyrosine kinase 2-beta (Homo sapiens, UniProt Q14289);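 note: potency of inhibitors of PYK2 kinase phosphorylation of poly-GT substrate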
[19] = molecular target: Mitogen-activated protein kinase 10 (Homo sapiens, UniProt P53779); assay: Dose response biochemical screening assay for inhibitors of c-Jun N-Terminal Kinase 3 (JNK3). [Related pubchem assays: 746 ]
[20] = molecular target: T3, Short transient receptor potential channel 4 (Mus musculus, UniProt Q9QUQ5); assay: block of DAMGO-driven TRPC4 calcium entry – cell-based, HEK293 TRPC4/mu-opioid, Fluo-4 calcium, dose response (AID 434942); assay type: functional;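 note: potency of inhibitors blocking the TRPC4 calcium response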
T3 sequence (Q9QUQ5 whole entry): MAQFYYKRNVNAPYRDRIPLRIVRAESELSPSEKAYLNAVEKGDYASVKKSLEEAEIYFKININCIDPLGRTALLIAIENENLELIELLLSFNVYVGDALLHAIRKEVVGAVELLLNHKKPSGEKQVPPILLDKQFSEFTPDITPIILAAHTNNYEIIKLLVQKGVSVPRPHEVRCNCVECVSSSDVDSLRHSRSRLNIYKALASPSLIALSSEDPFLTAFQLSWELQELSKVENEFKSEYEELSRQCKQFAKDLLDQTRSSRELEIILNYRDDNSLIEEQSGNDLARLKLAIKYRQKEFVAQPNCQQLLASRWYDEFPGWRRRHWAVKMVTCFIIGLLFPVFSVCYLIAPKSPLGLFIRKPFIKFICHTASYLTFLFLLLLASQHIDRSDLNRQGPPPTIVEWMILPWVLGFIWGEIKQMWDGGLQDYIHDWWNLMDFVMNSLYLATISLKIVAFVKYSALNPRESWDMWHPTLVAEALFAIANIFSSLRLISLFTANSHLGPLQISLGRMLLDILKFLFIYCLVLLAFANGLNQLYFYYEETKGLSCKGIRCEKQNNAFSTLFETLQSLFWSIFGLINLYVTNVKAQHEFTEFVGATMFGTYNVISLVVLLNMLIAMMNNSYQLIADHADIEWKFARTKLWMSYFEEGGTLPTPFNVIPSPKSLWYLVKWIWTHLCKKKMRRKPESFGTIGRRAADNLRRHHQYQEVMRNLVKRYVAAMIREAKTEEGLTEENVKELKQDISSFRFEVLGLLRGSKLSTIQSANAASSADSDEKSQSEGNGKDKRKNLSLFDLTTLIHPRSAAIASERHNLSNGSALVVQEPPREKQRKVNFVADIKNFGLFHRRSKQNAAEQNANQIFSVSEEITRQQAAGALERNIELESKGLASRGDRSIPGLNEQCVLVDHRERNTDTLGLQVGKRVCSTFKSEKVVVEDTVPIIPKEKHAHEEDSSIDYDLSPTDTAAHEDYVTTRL

HEK293 = assay: EBV LMP1 TES2 canonical NF-kB signalling blockers – cell-based, HEK293, luciferase, cherry-pick, dose response (AID 588343); assay type: functional; settings: Homo sapiens
[21] = molecular target: Dual specificity tyrosine-phosphorylation-regulated kinase 1A (Rattus norvegicus, UniProt Q63470); assay type: biochemical, Homo sapiens

Sequence of Paired box protein Pax-8 (Q06710 whole entry): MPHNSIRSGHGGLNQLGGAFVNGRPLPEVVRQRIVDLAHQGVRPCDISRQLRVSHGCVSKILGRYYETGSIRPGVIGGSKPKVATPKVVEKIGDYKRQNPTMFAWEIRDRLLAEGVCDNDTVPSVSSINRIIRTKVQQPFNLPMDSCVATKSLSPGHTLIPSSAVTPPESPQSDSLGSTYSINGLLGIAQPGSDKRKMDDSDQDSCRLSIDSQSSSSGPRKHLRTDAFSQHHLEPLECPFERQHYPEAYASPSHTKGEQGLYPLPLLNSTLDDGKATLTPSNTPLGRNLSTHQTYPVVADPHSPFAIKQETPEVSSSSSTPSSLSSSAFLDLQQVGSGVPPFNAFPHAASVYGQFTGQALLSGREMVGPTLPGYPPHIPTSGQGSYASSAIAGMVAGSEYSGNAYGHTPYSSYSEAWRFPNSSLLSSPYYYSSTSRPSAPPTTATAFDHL
Sequence of Photoreceptor-specific nuclear receptor (Q9Y5X4 whole entry, the tested form may be a part): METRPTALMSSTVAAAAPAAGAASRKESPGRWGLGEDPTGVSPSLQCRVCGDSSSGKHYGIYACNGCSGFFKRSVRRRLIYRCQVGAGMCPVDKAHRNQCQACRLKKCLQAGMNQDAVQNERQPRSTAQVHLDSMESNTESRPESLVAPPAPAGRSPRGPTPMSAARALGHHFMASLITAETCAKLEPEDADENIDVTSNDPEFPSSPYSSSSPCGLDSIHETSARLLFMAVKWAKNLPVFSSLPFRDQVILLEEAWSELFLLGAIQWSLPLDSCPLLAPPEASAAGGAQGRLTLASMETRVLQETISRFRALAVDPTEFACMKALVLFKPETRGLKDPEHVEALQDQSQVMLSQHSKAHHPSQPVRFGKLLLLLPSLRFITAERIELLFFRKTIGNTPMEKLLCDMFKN
Sequence of G-protein coupled receptor 55 (Q9Y2T6 whole entry): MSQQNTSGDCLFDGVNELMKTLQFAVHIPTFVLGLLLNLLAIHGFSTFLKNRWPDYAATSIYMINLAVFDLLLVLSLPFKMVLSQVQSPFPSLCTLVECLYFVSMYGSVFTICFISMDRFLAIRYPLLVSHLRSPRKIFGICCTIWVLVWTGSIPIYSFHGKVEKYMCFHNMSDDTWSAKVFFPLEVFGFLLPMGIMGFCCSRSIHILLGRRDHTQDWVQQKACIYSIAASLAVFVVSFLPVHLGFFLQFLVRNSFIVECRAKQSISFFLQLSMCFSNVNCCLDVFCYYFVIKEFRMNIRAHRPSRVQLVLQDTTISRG
Sequence of Protein-tyrosine kinase 2-beta (Q14289 whole entry): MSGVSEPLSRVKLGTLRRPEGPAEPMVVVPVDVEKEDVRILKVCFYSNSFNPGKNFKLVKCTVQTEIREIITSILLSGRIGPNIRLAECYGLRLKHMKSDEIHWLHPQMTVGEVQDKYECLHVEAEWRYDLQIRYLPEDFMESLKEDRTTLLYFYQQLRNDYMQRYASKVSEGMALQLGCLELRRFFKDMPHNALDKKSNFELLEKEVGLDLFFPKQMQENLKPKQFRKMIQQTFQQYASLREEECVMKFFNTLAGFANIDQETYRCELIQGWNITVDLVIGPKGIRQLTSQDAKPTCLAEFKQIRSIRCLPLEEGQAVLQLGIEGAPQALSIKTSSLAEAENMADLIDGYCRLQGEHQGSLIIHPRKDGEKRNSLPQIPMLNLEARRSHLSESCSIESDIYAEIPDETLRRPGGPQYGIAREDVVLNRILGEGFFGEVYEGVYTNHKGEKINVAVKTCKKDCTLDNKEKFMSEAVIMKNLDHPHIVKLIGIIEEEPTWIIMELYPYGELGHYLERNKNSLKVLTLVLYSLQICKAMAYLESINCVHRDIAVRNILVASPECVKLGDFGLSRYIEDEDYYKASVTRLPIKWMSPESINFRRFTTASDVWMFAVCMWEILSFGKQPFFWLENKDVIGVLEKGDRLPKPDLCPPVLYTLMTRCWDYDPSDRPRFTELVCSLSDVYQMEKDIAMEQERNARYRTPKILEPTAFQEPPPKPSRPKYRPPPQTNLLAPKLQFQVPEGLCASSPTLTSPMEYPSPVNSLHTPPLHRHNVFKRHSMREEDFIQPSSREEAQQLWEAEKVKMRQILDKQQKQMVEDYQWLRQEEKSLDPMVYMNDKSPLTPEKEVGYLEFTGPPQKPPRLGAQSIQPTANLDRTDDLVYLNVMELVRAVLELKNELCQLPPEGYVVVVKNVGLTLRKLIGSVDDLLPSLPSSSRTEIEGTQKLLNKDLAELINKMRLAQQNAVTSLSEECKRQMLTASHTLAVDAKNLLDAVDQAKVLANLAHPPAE
Sequence of Mitogen-activated protein kinase 10 (P53779 whole entry): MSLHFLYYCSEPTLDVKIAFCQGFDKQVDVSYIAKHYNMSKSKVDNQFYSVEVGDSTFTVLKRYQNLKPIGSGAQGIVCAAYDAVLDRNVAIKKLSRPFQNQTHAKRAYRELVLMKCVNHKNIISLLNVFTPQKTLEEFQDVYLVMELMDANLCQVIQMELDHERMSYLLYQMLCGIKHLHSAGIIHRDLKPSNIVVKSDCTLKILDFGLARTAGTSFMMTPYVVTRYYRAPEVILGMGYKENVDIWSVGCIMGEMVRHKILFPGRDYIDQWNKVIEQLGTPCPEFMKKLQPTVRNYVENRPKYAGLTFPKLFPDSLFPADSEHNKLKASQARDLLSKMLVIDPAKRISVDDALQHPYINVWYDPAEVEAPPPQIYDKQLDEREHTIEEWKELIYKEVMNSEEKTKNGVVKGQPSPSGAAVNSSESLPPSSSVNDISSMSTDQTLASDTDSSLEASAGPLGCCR
Sequence of Neuropeptide Y receptor type 1 (P25929 whole entry): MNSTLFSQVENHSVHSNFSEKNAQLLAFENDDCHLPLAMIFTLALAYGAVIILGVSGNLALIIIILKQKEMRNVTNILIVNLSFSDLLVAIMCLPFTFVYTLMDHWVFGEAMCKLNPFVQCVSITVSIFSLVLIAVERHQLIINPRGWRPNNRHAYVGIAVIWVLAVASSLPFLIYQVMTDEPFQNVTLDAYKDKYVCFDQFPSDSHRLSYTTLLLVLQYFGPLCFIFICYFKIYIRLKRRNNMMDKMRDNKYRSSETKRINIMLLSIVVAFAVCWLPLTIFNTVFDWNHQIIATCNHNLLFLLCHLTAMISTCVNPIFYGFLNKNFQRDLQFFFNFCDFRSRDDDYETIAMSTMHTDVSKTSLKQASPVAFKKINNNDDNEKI
Sequence of 14-3-3 protein gamma (P61981 whole entry): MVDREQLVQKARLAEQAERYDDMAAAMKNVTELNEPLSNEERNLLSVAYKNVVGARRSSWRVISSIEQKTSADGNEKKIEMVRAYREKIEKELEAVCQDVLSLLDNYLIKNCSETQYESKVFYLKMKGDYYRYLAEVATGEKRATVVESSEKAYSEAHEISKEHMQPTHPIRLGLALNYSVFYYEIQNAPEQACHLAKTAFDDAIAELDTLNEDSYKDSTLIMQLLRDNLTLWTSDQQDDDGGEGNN
Sequence of Melanocortin receptor 4 (P32245 whole entry): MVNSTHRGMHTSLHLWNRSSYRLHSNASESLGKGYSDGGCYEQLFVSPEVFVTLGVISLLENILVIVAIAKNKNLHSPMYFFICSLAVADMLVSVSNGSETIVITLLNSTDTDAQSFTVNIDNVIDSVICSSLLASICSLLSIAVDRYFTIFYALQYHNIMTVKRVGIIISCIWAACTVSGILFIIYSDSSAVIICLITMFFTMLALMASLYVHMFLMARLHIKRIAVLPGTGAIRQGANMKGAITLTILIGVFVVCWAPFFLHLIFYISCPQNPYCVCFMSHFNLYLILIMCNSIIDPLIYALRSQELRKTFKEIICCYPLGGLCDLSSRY
Sequence of Neuropeptide Y receptor type 2 (P49146 whole entry): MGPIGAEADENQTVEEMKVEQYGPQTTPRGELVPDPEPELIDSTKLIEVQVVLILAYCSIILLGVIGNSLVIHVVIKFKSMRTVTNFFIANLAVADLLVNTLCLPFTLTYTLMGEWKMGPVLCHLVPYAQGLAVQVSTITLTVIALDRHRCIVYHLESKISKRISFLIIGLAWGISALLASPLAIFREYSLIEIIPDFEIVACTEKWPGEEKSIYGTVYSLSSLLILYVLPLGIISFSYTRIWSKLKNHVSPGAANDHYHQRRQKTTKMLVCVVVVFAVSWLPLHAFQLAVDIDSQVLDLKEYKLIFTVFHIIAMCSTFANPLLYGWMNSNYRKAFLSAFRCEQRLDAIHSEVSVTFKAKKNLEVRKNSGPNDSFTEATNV

Cc1csc(NC(=O)CSc2nsc(SCC(=O)Nc3nc(C)cs3)c2C#N)n1
> 120 µM (not active): EC50 (H4)
> 50 µM (not active): IC50 (14-3-3 protein gamma)
active: EC50 [1] 1.86 µM | EC50 [2] 12.4 µM | EC50 [3] 11 µM

Cc1cccc(NC(S)=NN=C(S)NCc2ccccc2)c1
> 35 µM (not active): IC50 [4] | IC50 [5]

Cc1nc2ccccc2c(O)c1C(=O)/C=C/c1ccccc1
active: IC50 [6] 1.71 µM | CC50 (Vero) 7.78 µM | AC50 (Paired box protein Pax-8) 6.93 µM

Cc1ccc(Sc2ccc(NC(=O)c3ccc(F)cc3)cc2C#N)cc1
> 500 µM (not active): EC50 (Streptokinase A) | EC50 (Streptococcus)
inactive: IC50 (Melanocortin receptor 4) > 64.6 µM | IC50 [7] > 64.6 µM

CN1C2CCC1/C(=C/c1ccccn1)C(=O)/C2=C\c1ccccn1
active: IC50 [8] 3.25 µM | CC50 [9] 1.69 µM | IC50 [10] 1.76 µM | CC50 [11] 0.894 µM | CC50 [12] 1.49 µM | CC50 [13] 1.06 µM | IC50 (cells) 7.83 µM | AC50 (INS1) 1.59 µM | IC50 [14] 2.58 µM | IC50 [15] 1.73 µM | CC50 [16] 12.5 µM | IC50 [17] 62.5 µM | AC50 (Paired box protein Pax-8) 0.852 µM

COC(=O)c1cccc2c1-c1ccccc1/C2=N/O
active: IC50 [18] 6.71 µM | IC50 [19] 8.81 µM | EC50 [20] 2.99 µM | AC50 (HEK293) 28 µM | AC50 [21] 0.434 µM
